Test results reported in patent US8993556B2, “Resorcinol derivatives as HSP90 inhibitors” (priority 2009, dated 2015).

Experiments:
[1] = system: Her2 protein levels in BT474 breast cancer cells; assay: Her2 Degradation Assay; type: cell-based; settings: Homo sapiens, BT-474, 8 h, read-out: Her2 Degradation IC50 (μM)
Protocol: The potencies of the compounds of the present invention were evaluated by measuring the Her2 degradation as a marker for HSP90 inhibition.
HSP90 is a key component of a chaperone machinery that catalyzes the folding and quality control of several proteins. Its inhibition impairs the capacity to fold or stabilize its client proteins, leading to the proteosomal dependent degradation of these unfolded proteins. […] Cellular activity of HSP90 inhibitors was assessed by measuring the induced loss of Her2 protein levels in BT474 breast cancer cells (ATCC #HTB-20). Cellular Her2 levels were measured by immunocytochemistry, and quantified using an ArrayScan vTi instrument (Cellomics Thermo Scientific).
Cellular activity of HSP90 inhibitors was assessed by measuring the induced loss of Her2 protein levels in BT474 breast cancer cells (ATCC #HTB-20). Cellular Her2 levels were measured by immunocytochemistry, and quantified using an ArrayScan vTi instrument (Cellomics Thermo Scientific).
Studies were performed as follows: 5000 cells/well are seeded in 96 well plates (Perkin Elmer) in DMEM/5% FCS and incubated for 48 hours at 37° C., 5% CO2.
Medium is then replaced with fresh medium containing test compounds at the required concentration. Concentration curves are prepared in DMEM/10% FCS from compound stocks in DMSO, and final DMSO concentration is 0.1% (v/v). Duplicate wells for each concentration point are prepared, with a typical highest compound concentration of 30 μM. […] Plates are incubated for 20 minutes at room temperature, then wells are washed in PBS and cells permiabilised by incubating with PBS containing 0.3% Triton X-100 for 15 minutes at room temperature. Non-specific binding sites are blocked by incubating wells for 1 hour in PBS containing 3% (w/v) BSA. Wells are then incubated for 1 hour at room temperature in PBS containing anti Her2 mouse monoclonal (Anti-c-ErbB2/c-Neu, Mouse mAb 3B5, Calbiochem Cat N^o OP15) diluted 1:100 in 1% (w/v) BSA. […] After washing a further 3 times in PBS, cellular Her2 immunoreactivity is assessed using the ArrayScan vTi instrument, with a Zeiss 10× 0.5 N.A. objective, and applying the Cytotoxity.V3 algorithm (Cellomics/Thermo Fisher) with a XF100 filter. At least 10 fields, corresponding to at least 900 cells, are read for each well.
IC50 is the response; IC50 starts at Bottom and goes to Top with a sigmoid shape. In Vitro Cell Proliferation Assay

[2] = target: His-HSP90 N-term domain; assay: Determination of KD Via Biacore; type: binding; settings: Biacore T100
Protocol: The evaluation of the binding affinity (KD) of the compounds of formula (I) to the HSP90 protein was done using Biacore T100.
His-HSP90 N-term domain was immobilized by capture of his tag by the Ab previously covalently bound to the chip (CM5) surface.
The compounds were analyzed using the following running buffer: 20 mM Tris/HCl pH 7.6, 150 mM KCl, 5 mM MgCl2, 0.05% P20 and 1% DMSO. The flow rate was 50 ul/min with and association time of 60 seconds.
The cpds were diluted in running buffer from 100× stock solution; the different conc injected were obtained from a sequential dilution in order to have the same DMSO conc. in each sample and avoid any solvent correction.

[3] = system: human ovarian carcinoma cell line A2780 transplanted in immunodeficient mice; assay: In Vivo Antitumor Efficacy; set-up: species or system mouse; settings: A2780 in athymic mice
Protocol: Antitumor activity of HSP90 inhibitors was assessed in vivo using the human ovarian carcinoma cell line A2780 transplanted in immunodeficient mice.
Balb Nu/Nu, male mice, (athymic mice) from Harlan, Italy, were maintained in cages with paper filter covers, food and bedding sterilized and water acidified. A2780 tumors were maintained in vivo by serial transplantation and, at the time of efficacy experiments, implanted subcutaneously in athymic mice. The treatments started 8 days later when the tumors were palpable. HSP90 inhibitors were prepared immediately before use and administered intravenously in a volume of 10 ml/kg at different doses.
Tumor growth was assessed by caliper. The two diameters were recorded, and the tumor weight was calculated according to the following formula: length (mm)×width^2 (mm)/2. The effect of the antitumor treatment was determined as tumor growth inhibition (TGI %) of treated group respect to vehicle treated controls.

[4] = system: A2780 human ovarian cells; assay: In Vitro Cell Proliferation Assay; type: cell-based; settings: Homo sapiens, A2780, 72 h, read-out: A2780 Proliferation IC50 (μM)
Protocol: The cells were incubated at 37° C. and 5% CO2 and after 72 hours the plates were processed using CellTiter-Glo assay (Promega) following the manufacturer's instruction.
CellTiter-Glo is a homogenous method based on the quantification of the ATP present, an indicator of metabolically active cells. ATP is quantified using a system based on luciferase and D-luciferin resulting into light generation. The luminescent signal is proportional to the number of cells present in culture.
Briefly 25 μL/well reagent solution are added to each wells and after 5 minutes shacking microplates are red by a luminometer. The luminescent signal is proportional to the number of cells present in culture.

[5] = in vivo; settings: Mouse Balb Nu/Nu, single
Protocol: Calibration Standards and Quality Controls were prepared spiking blank mouse plasma with appropriate working solutions.
Sample plasma proteins were precipitated by adding 160 μL of acetonitrile/methanol 90/10 to 20 μL of mouse plasma in a 96 well plate.
After heat sealing and mixing for 3 minutes, the plate was centrifuged for 15 minutes at 4000 rpm.
The supernatant was considered as final extract and injected onto the LC-MS-MS system.
• UPLC system: Waters Acquity BSM • Mobile phase A: 95:5-5 mM Ammonium Formate pH3.5: Acetonitrile • Mobile phase B: 5:95-5 mM Ammonium Formate pH3.5: Acetonitrile • Analytical column: BEH C18 50×2.1 1.7 μm • Elution conditions:
• Total Run Time: 2.0 min. • Flow rate: 0.500 mL/min • Approximate retention time: NMS-03308086: 0.67 min. • Column oven temp: 40° C. • Autosampler type: Waters Acquity SM • Injection volume: 3 μL • Injection mode: Partial Loop with Needle Overfill • Autosampler temperature: 5° C. • MS instrument: Waters TQD • Ionisation: ES+ • Capillary: 1.5 kV • Cone: 70 V • Source Temperature: 150° C. • Desolvation Flow and Temp.: 900 L/h-400° C. • Collision Gas Flow: 0.2 mL/min • Collision Energy: 40 • MRM transitions: NMS-03308086: m/z 579.1>m/z 97.0 • Dwell Time: 0.1 seconds • LLOQ: 5.0 ng/mL • ULOQ: 5000 ng/mL • Software used: Mass Lynx 4.1 SCN627

| Compound | IC50 [1] [µM] | Kd [2] [nM] | TGI ([3]; intravenously at 30 mg/Kg daily) [%] | IC50 [4] [µM] | clearance ([5]; 10 mg/kg IV bolus, read-out: CL (mL/h/kg) Plasma clearance (converted)) [mL/h/kg] | half-life ([5]; 10 mg/kg IV bolus, read-out: T1/2 (h) Terminal half-life (converted)) [h] | Vd ([5]; 10 mg/kg IV bolus, read-out: Vdss (mL/kg) Volume of distribution at steady state) [mL/kg] | bioavailability ([5]; 10 mg/kg oral vs 10 mg/kg IV, read-out: F % Oral bioavailability) [%] | TGI ([3]; intravenously at 40 mkg/kg every three days) [%] |
| --- | --- | --- | --- | --- | --- | --- | --- | --- | --- |
| CN(C)c1ccc(Oc2cc(O)cc(O)c2-c2cc(C(=O)NC3CCN(C4CCC5(CC4)OCCCO5)CC3)no2)cc1 [5-{2-[4-(Dimethylamino)phenoxy]-4,6-dihydroxyphenyl}-N-[1-(1,5-dioxaspiro[5.5]undec-9-yl)piperidin-4-yl]isoxazole-3-carboxamide] | 0.038 | 0.079 | 92 | 0.021 | – | – | – | – | – |
| CN1CCC(NC(=O)c2cc(-c3c(O)cc(O)cc3Oc3ccc(N(C)C)cc3)no2)CC1 [3-{2-[4-(Dimethylamino)phenoxy]-4,6-dihydroxyphenyl}-N-(1-methylpiperidin-4-yl)isoxazole-5-carboxamide] | 0.008 | 0.066 | – | 0.03 | 3430 | 5.12 | 12500 | 25 | 88 |
